Legend:
THP-1 TNFα release = assay: LPS-stimulation of THP-1 cells, TNF-α release by ELISA; format: cell-based; details: Homo sapiens, THP-1, 6 h; read-out: Inhibitor activity versus THP-1 TNFα release
Protocol: THP-1 cells were plated in 100 μl at a density of 4×10^4 cells/well in V-bottomed 96 well tissue culture treated plates and incubated at 37° C. in 5% CO2 for 16 hrs. 2 hrs after the addition of the inhibitor in 100 μl of tissue culture media, the cells were stimulated with LPS (E coli strain 005:B5, Sigma) at a final concentration of 1 μg/ml and incubated at 37° C. in 5% CO2 for 6 hrs. TNF-α levels were measured from cell-free supernatants by sandwich ELISA (R&D Systems #QTA00B).

p38 MAP Kinase a = target: T1, p38 MAP Kinase a (Homo sapiens, UniProt Q16539); assay: p38 MAP Kinase activity, radiometric filter-binding assay (Upstate); format: biochemical; details: IC50 range; read-out: Inhibitor activity versus p38 MAPKa
T1 construct: purchased Upstate (Dundee UK)
T1 sequence (Q16539 whole entry): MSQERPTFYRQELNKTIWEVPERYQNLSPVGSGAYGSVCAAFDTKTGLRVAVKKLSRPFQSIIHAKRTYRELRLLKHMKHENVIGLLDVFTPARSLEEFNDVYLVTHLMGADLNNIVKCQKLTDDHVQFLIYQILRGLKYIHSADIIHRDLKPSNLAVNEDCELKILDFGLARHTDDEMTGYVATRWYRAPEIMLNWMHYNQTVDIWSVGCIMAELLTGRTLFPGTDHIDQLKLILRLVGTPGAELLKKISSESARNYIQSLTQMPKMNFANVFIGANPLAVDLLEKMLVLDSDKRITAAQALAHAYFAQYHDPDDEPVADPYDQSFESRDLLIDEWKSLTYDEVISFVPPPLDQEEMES
Protocol: The ability of compounds to inhibit p38 MAP a Kinase activity was measured in an assay performed by Upstate (Dundee UK). In a final reaction volume of 25 μL, p38 MAP Kinase a (5-10 mU) is incubated with 25 mM Tris pH 7.5, 0.002 mMEGTA, 0.33 mg/mL myelin basic protein, 10 mM MgAcetate and [g-33P-ATP] (specific activity approx. 500 cpm/pmol, concentration as required). The reaction is initiated by the addition of the MgATP mix. After incubation for 40 minutes at room temperature, the reaction is stopped by the addition of 5 μL of a 3% phosphoric acid solution. 10 μL of the reaction is then spotted onto a P30 filtermat and washed three times for 5 minutes in 75 mM phosphoric acid and once in methanol prior to drying and scintillation counting.
Duplicate data points are generated from a 1/3 log dilution series of a stock solution in DMSO. Nine dilutions steps are made from a top concentration of 10 μM, and a ‘no compound’ blank is included. The standard radiometric filter-binding assay is performed at an ATP concentration at, or close to, the Km. Data from scintillation counts are collected and subjected to free-fit analysis by Prism software. From the curve generated, the concentration giving 50% inhibition is determined and reported.

SMILES	IC50 (THP-1 TNFα release) [µM]	IC50 (p38 MAP Kinase a) [µM]
Nc1c(C(=O)c2ccc(F)cc2F)ccc(=O)n1-c1c(F)cc(CCN[C@H](C(=O)OC2CCCC2)c2ccccc2)cc1F [Example 34, Cyclopentyl (2S)-[(2-{4-[6-amino-5-(2,4-difluorobenzoyl)-2-oxopyridin-1(2H)-yl]-3,5-difluorophenyl}ethyl)amino](phenyl)acetate]	< 0.1	< 0.1
Nc1c(C(=O)c2ccc(F)cc2F)ccc(=O)n1-c1c(F)cc(CCN[C@H](C(=O)OC2CCCC2)c2ccc(O)cc2)cc1F [Example 44, Cyclopentyl (2S)-{[2-(4-{6-amino-5-[(2,4-difluorophenyl)carbonyl]-2-oxopyridin-1(2H)-yl}-3,5-difluorophenyl)ethyl]amino}(4-hydroxyphenyl)ethanoate]	< 0.1	< 0.1
CC(C)[C@H](NCCc1ccc(-n2c(N)c(C(=O)c3ccc(F)cc3F)ccc2=O)cc1)C(=O)OC1CCCC1 [Example 5, Cyclopentyl N-[2-(4-{6-amino-5-[(2,4-difluorophenyl)carbonyl]-2-oxopyridin-1(2H)-yl}phenyl)ethyl]-L-valinate]	< 0.1	0.1 to 1
CC(C)(C)OC(=O)[C@@H](NCCc1cc(F)c(-n2c(N)c(C(=O)c3ccc(F)cc3F)ccc2=O)c(F)c1)c1ccc(F)cc1 [Example 48, tert-butyl (2S)-{[2-(4-{6-amino-5-[(2,4-difluorophenyl)carbonyl]-2-oxopyridin-1(2H)-yl}-3,5-difluorophenyl)ethyl]amino}(4-fluorophenyl)ethanoate]	< 0.1	–
COc1ccc([C@H](NCCc2cc(F)c(-n3c(N)c(C(=O)c4ccc(F)cc4F)ccc3=O)c(F)c2)C(=O)OC2CCCC2)cc1 [Example 46, Cyclopentyl (2S)-{[2-(4-{6-amino-5-[(2,4-difluorophenyl)carbonyl]-2-oxopyridin-1(2H)-yl}-3,5-difluorophenyl)ethyl]amino}(4-methoxyphenyl)ethanoate]	< 0.1	< 0.1
C[C@@H](OC(C)(C)C)[C@H](NCCc1ccc(-n2c(N)c(C(=O)c3ccc(F)cc3F)ccc2=O)cc1)C(=O)OC1CCCC1 [Example 15, Cyclopentyl N-[2-(4-{6-amino-5-[(2,4-difluorophenyl)carbonyl]-2-oxopyridin-1(2H)-yl}phenyl)ethyl]-O-tert-butyl-L-threoninate]	> 1	0.1 to 1
Nc1c(C(=O)c2ccc(F)cc2F)ccc(=O)n1-c1c(F)cc(CCN[C@@H](C(=O)OC2CCCC2)c2ccccc2)cc1F [Example 42, Cyclopentyl (2R)-[(2-{4-[6-amino-5-(2,4-difluorobenzoyl)-2-oxopyridin-1(2H)-yl]-3,5-difluorophenyl}ethyl)amino](phenyl)acetate]	< 0.1	< 0.1
CC(C)[C@H](NCCc1ccc(-n2c(N)c(C(=O)c3ccc(F)cc3F)ccc2=O)cc1)C(=O)OC(C)(C)C [Example 6, tert-butyl N-[2-(4-{6-amino-5-[(2,4-difluorophenyl)carbonyl]-2-oxopyridin-1(2H)-yl}phenyl)ethyl]-L-valinate]	0.1 to 1	0.1 to 1
Nc1c(C(=O)c2ccc(F)cc2F)ccc(=O)n1-c1ccc(CCN[C@H](C(=O)OC2CCCC2)c2ccccc2)cc1 [Example 1]	< 0.1	0.1 to 1
CC(C)[C@H](NCCc1cc(F)c(-n2c(N)c(C(=O)c3ccc(F)cc3F)ccc2=O)c(F)c1)C(=O)OC1CCCC1 [Example 43, Cyclopentyl N-[2-(4-{6-amino-5-[(2,4-difluorophenyl)carbonyl]-2-oxopyridin-1(2H)-yl}-3,5 difluorophenyl)ethyl]-L-valinate]	< 0.1	< 0.1
CC(C)C[C@H](NCCc1cc(F)c(-n2c(N)c(C(=O)c3ccc(F)cc3)ccc2=O)c(F)c1)C(=O)OC1CCCC1 [Example 24, Cyclopentyl N-(2-{4-[6-amino-5-(4-fluorobenzoyl)-2-oxopyridin-1(2H)-yl]-3,5-difluorophenyl}ethyl)-L-leucinate]	< 0.1	< 0.1
Nc1c(C(=O)c2ccc(F)cc2)ccc(=O)n1-c1c(F)cc(CCN[C@H](C(=O)OC2CCCC2)C2CCCCC2)cc1F [Example 28, Cyclopentyl (2S)-[(2-{4-[6-amino-5-(4-fluorobenzoyl)-2-oxopyridin-1(2H)-yl]-3,5-difluorophenyl}ethyl)amino](cyclohexyl)acetate]	0.1 to 1	0.1 to 1
C[C@H](NCCc1ccc(-n2c(N)c(C(=O)c3ccc(F)cc3F)ccc2=O)cc1)C(=O)OC1CCCC1 [Example 20, Cyclopentyl N-[2-(4-{6-amino-5-[(2,4-difluorophenyl)carbonyl]-2-oxopyridin-1(2H)-yl}phenyl)ethyl]-L-alaninate]	< 0.1	< 0.1
Nc1c(C(=O)c2ccc(F)cc2F)ccc(=O)n1-c1c(F)cc(CCN[C@H](C(=O)OC2CCCC2)c2ccc(F)cc2)cc1F [Example 47, Cyclopentyl (2S)-{[2-(4-{6-amino-5-[(2,4-difluorophenyl)carbonyl]-2-oxopyridin-1(2H)-yl}-3,5-difluorophenyl)ethyl]amino}(4-fluorophenyl)ethanoate]	< 0.1	–
CC(C)C[C@H](NCCc1cc(F)c(-n2c(N)c(C(=O)c3ccc(F)cc3F)ccc2=O)c(F)c1)C(=O)OC(C)(C)C [Example 37, tert-butyl N-(2-{4-[6-amino-5-(2,4-difluorobenzoyl)-2-oxopyridin-1(2H)-yl]-3,5-difluorophenyl}ethyl)-L-leucinate]	< 0.1	0.1 to 1
C[C@@H](O)[C@H](NCCc1ccc(-n2c(N)c(C(=O)c3ccc(F)cc3F)ccc2=O)cc1)C(=O)OC1CCCC1 [Example 17, Cyclopentyl N-[2-(4-{6-amino-5-[(2,4-difluorophenyl)carbonyl]-2-oxopyridin-1(2H)-yl}phenyl)ethyl]-L-threoninate]	< 0.1	< 0.1
CC(C)C[C@@H](NCCc1cc(F)c(-n2c(N)c(C(=O)c3ccc(F)cc3F)ccc2=O)c(F)c1)C(=O)OC1CCCC1 [Example 38, Cyclopentyl N-(2-{4-[6-amino-5-(2,4-difluorobenzoyl)-2-oxopyridin-1(2H)-yl]-3,5-difluorophenyl}ethyl)-D-leucinate]	< 0.1	0.1 to 1
Nc1c(C(=O)c2ccc(F)cc2F)ccc(=O)n1-c1c(F)cc(CCN[C@H](C(=O)OC2CCCC2)C2CCCCC2)cc1F [Example 36, Cyclopentyl (2S)-[(2-{4-[6-amino-5-(2,4-difluorobenzoyl)-2-oxopyridin-1(2H)-yl]-3,5-difluorophenyl}ethyl)amino](cyclohexyl)acetate]	< 0.1	0.1 to 1
CC(C)(C)OC(=O)[C@@H](NCCc1cc(F)c(-n2c(N)c(C(=O)c3ccc(F)cc3F)ccc2=O)c(F)c1)c1ccccc1 [Example 35, tert-butyl (2S)-[(2-{4-[6-amino-5-(2,4-difluorobenzoyl)-2-oxopyridin-1(2H)-yl]-3,5-difluorophenyl}ethyl)amino](phenyl)acetate]	< 0.1	–
CC(C)(C)OC[C@H](NCCc1ccc(-n2c(N)c(C(=O)c3ccc(F)cc3F)ccc2=O)cc1)C(=O)OC(C)(C)C [Example 12, tert-butyl N-[2-(4-{6-amino-5-[(2,4-difluorophenyl)carbonyl]-2-oxopyridin-1(2H)-yl}phenyl)ethyl]-O-tert-butyl-L-serinate]	> 1	0.1 to 1
CC(C)C[C@@H](NCCc1cc(F)c(-n2c(N)c(C(=O)c3ccc(F)cc3)ccc2=O)c(F)c1)C(=O)OC(C)(C)C [Example 30, tert-butyl N-(2-{4-[6-amino-5-(4-fluorobenzoyl)-2-oxopyridin-1(2H)-yl]-3,5-difluorophenyl}ethyl)-D-leucinate]	0.1 to 1	0.1 to 1
CC(C)(C)OC[C@H](NCCc1cc(F)c(-n2c(N)c(C(=O)c3ccc(F)cc3F)ccc2=O)c(F)c1)C(=O)OC(C)(C)C [Example 41, tert-butyl N-(2-{4-[6-amino-5-(2,4-difluorobenzoyl)-2-oxopyridin-1(2H)-yl]-3,5-difluorophenyl}ethyl)-O-tert-butyl-L-serinate]	< 0.1	< 0.1
CC(C)C[C@H](NCCc1cc(F)c(-n2c(N)c(C(=O)c3ccc(F)cc3)ccc2=O)c(F)c1)C(=O)OC(C)(C)C [Example 25, tert-butyl N-(2-{4-[6-amino-5-(4-fluorobenzoyl)-2-oxopyridin-1(2H)-yl]-3,5-difluorophenyl}ethyl)-L-leucinate]	< 0.1	0.1 to 1
CC(C)(C)OC(=O)[C@@H](NCCc1ccc(-n2c(N)c(C(=O)c3ccc(F)cc3F)ccc2=O)cc1)C1CCCCC1 [Example 4, tert-butyl (2S)-{[2-(4-{6-amino-5-[(2,4-difluorophenyl)carbonyl]-2-oxopyridin-1(2H)-yl}phenyl)ethyl]amino}(cyclohexyl)ethanoate]	–	> 1

Reference: US20100267774A1, “P38 MAP KINASE INHIBITORS” (CHROMA THERAPEUTICS LTD., priority 2007, published 2010)
